# In ChEMBL document CHEMBL5291721, “A preclinical secondary pharmacology resource illuminates target-adverse drug reaction associations of marketed drugs” (Nat Commun, 2023):
# Legend:
# D(1A) dopamine receptor = D(1A) dopamine receptor (Homo sapiens, UniProt P21728)
# [1] = target: Beta-3 adrenergic receptor (Homo sapiens, UniProt P13945)
# [2] = target: T1, Muscarinic acetylcholine receptor M2 (Homo sapiens, UniProt P08172)
# T1 sequence (P08172 whole entry): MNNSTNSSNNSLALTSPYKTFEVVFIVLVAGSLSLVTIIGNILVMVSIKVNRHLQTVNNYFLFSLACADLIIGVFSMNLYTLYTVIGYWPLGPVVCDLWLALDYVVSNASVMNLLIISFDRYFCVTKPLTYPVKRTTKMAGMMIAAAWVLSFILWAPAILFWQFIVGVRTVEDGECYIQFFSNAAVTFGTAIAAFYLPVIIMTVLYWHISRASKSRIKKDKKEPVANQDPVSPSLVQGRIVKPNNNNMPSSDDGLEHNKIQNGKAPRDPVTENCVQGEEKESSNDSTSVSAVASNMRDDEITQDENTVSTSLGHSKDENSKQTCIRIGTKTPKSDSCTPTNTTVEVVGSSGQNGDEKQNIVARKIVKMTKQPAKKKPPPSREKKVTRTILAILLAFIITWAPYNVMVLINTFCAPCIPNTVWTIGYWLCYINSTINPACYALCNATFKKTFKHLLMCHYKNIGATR
# Progesterone receptor = target: T2, Progesterone receptor (Homo sapiens, UniProt P06401)
# T2 sequence (P06401 whole entry): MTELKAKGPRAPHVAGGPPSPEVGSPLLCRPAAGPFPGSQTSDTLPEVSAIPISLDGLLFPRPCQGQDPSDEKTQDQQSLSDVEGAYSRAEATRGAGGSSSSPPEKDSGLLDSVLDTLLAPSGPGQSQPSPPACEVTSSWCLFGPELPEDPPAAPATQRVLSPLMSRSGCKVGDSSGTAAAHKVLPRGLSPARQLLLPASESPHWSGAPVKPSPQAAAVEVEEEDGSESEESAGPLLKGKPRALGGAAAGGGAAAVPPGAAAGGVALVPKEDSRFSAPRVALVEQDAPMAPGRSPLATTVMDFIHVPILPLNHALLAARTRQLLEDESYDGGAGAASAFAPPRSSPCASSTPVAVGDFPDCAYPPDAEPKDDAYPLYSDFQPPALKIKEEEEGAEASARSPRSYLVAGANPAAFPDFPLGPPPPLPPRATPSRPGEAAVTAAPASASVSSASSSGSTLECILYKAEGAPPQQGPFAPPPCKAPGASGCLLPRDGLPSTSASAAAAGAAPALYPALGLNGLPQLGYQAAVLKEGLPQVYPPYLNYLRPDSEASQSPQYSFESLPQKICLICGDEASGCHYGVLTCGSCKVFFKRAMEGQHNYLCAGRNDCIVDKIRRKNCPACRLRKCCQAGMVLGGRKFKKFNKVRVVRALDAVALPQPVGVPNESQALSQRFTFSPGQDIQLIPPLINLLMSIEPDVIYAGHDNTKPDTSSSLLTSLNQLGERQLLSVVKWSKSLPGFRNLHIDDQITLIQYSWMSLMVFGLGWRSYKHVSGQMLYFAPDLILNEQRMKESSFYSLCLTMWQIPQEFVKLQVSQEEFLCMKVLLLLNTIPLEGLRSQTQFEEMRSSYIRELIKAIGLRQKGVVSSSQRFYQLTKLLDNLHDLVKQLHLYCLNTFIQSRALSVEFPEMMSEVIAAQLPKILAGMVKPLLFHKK
# Androgen receptor [3] = target: T3, Androgen receptor (Rattus norvegicus, UniProt P15207)
# T3 sequence (P15207 whole entry): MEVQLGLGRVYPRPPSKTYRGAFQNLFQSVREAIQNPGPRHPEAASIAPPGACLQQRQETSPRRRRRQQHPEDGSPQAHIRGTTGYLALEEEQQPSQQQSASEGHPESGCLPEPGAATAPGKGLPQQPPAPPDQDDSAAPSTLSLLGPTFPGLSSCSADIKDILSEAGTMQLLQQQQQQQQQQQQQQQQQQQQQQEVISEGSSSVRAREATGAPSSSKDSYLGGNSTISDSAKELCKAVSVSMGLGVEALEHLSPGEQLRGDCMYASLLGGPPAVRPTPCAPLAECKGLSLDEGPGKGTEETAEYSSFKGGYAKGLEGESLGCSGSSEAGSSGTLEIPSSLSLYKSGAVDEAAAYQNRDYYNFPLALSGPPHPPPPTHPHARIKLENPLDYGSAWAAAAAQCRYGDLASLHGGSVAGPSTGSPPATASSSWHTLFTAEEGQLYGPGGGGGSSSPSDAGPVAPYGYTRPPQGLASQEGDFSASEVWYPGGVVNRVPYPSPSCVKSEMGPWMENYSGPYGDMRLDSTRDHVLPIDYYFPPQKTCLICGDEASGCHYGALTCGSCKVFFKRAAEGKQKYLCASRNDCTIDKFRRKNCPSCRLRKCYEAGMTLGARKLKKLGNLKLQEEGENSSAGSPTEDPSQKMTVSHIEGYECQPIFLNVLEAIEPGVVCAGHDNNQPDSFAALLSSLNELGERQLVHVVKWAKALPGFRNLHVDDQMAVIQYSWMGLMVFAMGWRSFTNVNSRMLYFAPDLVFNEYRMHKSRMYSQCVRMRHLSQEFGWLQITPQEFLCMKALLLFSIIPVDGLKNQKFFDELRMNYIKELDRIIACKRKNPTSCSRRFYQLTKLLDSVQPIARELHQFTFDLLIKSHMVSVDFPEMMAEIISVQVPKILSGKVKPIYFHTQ
# [4] = target: Gamma-aminobutyric acid receptor subunit alpha-1/alpha-2/beta-2/gamma-2 (Homo sapiens, UniProt P14867+P18507+P47869+P47870); assay type: functional, cell-based
# Gamma-aminobutyric acid receptor subunit alpha-1/alpha-2/beta-2/gamma-2, sequence (P14867 whole entry): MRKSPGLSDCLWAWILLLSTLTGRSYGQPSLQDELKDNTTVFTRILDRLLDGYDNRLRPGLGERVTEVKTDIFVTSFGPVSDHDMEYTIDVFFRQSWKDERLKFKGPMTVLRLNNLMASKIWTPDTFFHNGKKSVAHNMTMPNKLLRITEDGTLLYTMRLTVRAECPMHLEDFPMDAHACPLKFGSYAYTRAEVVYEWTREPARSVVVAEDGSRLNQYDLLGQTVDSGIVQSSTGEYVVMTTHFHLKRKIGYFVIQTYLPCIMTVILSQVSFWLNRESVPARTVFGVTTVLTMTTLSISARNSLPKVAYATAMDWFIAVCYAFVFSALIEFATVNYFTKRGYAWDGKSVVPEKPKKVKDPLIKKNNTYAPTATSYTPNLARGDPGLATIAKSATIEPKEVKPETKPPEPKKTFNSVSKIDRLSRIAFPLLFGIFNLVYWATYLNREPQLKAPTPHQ
# Gamma-aminobutyric acid receptor subunit alpha-1/alpha-2/beta-2/gamma-2, sequence (P47870 whole entry): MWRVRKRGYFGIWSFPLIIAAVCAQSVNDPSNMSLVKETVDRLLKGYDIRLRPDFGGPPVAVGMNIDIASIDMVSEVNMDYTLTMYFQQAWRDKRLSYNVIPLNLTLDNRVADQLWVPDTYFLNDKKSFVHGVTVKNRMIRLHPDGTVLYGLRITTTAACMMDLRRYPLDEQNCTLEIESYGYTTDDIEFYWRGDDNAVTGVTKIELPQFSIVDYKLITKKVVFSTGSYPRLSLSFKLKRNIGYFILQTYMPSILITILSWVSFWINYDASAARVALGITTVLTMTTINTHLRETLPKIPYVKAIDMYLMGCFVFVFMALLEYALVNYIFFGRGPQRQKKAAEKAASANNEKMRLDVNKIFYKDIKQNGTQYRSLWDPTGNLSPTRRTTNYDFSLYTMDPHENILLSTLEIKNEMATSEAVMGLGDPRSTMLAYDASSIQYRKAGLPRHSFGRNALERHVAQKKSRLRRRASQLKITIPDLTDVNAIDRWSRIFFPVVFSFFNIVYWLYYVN
# Gamma-aminobutyric acid receptor subunit alpha-1/alpha-2/beta-2/gamma-2, sequence (P18507 whole entry): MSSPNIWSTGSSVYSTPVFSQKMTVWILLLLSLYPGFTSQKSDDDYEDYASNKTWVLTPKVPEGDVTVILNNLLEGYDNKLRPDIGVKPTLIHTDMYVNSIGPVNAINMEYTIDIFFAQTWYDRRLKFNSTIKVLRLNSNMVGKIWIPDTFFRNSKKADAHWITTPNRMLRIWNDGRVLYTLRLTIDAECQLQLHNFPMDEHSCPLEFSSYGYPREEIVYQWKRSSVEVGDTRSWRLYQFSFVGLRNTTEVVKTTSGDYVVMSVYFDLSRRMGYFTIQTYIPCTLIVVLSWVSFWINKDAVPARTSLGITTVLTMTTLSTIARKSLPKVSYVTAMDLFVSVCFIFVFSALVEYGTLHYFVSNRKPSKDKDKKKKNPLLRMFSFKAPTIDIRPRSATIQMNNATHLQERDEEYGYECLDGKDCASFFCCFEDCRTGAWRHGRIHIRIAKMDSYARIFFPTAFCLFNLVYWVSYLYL
# Gamma-aminobutyric acid receptor subunit alpha-1/alpha-2/beta-2/gamma-2, sequence (P47869 whole entry): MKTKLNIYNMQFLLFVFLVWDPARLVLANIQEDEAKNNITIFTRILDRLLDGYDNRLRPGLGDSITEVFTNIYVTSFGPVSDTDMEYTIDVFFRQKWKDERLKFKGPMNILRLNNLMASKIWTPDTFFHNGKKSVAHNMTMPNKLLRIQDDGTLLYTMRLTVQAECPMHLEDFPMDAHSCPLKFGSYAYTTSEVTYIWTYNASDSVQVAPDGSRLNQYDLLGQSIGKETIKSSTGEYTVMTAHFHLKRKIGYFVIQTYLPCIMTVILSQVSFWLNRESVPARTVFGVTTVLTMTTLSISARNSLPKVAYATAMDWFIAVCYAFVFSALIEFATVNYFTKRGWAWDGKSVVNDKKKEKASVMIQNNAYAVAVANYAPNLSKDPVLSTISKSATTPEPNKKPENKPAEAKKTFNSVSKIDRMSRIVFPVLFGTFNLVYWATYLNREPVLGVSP
# [5] = target: Beta-1 adrenergic receptor (Homo sapiens, UniProt P08588); assay type: functional, cell-based
# Beta-1 adrenergic receptor, sequence (P08588 whole entry): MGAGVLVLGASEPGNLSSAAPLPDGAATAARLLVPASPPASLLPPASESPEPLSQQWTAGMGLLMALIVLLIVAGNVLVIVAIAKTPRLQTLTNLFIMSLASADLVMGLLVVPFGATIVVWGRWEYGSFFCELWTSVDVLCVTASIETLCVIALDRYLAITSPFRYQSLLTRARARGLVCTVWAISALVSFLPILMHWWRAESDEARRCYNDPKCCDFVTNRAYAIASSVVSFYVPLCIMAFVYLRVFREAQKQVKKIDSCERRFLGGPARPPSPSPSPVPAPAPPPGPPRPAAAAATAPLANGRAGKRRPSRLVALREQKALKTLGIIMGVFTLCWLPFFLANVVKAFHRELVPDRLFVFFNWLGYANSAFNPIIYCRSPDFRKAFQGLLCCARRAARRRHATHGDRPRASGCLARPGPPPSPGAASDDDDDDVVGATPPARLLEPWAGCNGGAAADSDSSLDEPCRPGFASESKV
# Androgen receptor [6] = target: T3, Androgen receptor; assay type: functional
# Androgen receptor [7] = target: T3, Androgen receptor; assay type: functional; remark: listed apart in the source
# Note: assay procedure not described here.
# D(1A) dopamine receptor, sequence (P21728 whole entry): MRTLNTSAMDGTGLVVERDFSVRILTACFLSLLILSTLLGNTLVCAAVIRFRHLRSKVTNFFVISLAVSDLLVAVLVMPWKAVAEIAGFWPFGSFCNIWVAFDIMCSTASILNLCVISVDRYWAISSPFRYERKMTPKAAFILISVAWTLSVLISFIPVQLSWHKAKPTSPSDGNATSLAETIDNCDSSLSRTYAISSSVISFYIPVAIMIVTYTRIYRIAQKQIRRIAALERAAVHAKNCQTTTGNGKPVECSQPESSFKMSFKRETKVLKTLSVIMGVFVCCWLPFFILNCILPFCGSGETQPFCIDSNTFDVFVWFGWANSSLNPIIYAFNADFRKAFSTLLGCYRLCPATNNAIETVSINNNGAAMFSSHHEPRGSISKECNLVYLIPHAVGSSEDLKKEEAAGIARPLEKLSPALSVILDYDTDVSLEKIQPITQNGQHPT
# Beta-3 adrenergic receptor, sequence (P13945 whole entry): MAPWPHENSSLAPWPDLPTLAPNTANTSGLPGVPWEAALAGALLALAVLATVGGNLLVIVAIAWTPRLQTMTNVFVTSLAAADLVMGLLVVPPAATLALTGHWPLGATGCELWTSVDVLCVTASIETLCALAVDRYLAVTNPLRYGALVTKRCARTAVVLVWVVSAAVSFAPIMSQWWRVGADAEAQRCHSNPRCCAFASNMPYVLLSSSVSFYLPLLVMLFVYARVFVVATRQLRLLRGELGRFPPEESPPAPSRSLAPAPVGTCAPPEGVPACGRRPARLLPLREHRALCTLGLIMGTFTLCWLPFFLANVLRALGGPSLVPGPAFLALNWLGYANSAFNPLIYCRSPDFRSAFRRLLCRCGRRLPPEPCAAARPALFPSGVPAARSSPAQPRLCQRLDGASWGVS
smiles,measurement,setting,value
OCc1cc(C(O)CNCCCCCCOCCCCc2ccccc2)ccc1O (stereo unspecified) [SALMETEROL],AC50,D(1A) dopamine receptor,> 10 µM
Cn1cnc2c(F)c(Nc3ccc(Br)cc3Cl)c(C(=O)NOCCO)cc21 [SELUMETINIB],AC50,[1],> 30 µM
same,AC50,[2],> 10 µM
same,AC50,D(1A) dopamine receptor,> 10 µM
same,AC50,Progesterone receptor,> 30 µM
O=C1CN=C(c2ccccn2)c2cc(Br)ccc2N1 [BROMAZEPAM],AC50,Androgen receptor [3],> 10 µM
CC(=O)OCC(=O)[C@@]1(O)[C@H](C)C[C@H]2[C@@H]3CCC4=CC(=O)C=C[C@]4(C)[C@@]3(F)[C@@H](O)C[C@@]21C [DEXAMETHASONE ACETATE],AC50,[1],> 30 µM
same,AC50,[2],> 10 µM
same,AC50,Progesterone receptor,> 30 µM
NC(=O)CN1CCCC1=O,AC50,[4],> 30 µM
O=C(O)c1ccccc1Nc1cc(Cl)ccc1C(=O)O [LOBENZARIT],AC50,[5],> 30 µM
C[N@+]1(CCF)[C@@H]2CC[C@H]1C[C@@H](OC(=O)C(O)(c1ccccc1)c1ccccc1)C2,AC50,[2],0.2 µM
CC(=O)[C@]1(O)Cc2c(O)c3c(c(O)c2[C@@H](O[C@H]2C[C@H](N)[C@H](O)[C@H](C)O2)C1)C(=O)c1ccccc1C3=O [IDARUBICIN],AC50,Androgen receptor [6],17 µM
Cn1c(=O)cc(N2CCC[C@@H](N)C2)n(Cc2ccccc2C#N)c1=O [ALOGLIPTIN],AC50,Androgen receptor [3],> 30 µM
same,AC50,[1],> 30 µM
same,AC50,[2],> 10 µM
same,AC50,D(1A) dopamine receptor,> 10 µM
same,AC50,Progesterone receptor,> 30 µM
CCC(COC(=O)c1cc(OC)c(OC)c(OC)c1)(c1ccccc1)N(C)C (stereo unspecified) [TRIMEBUTINE],AC50,[5],> 30 µM
NC1CCN(c2nc3c(cc2F)c(=O)c(C(=O)O)cn3-c2ccc(F)cc2F)C1 (stereo unspecified) [TOSUFLOXACIN],AC50,Androgen receptor [6],> 30 µM
same,AC50,Androgen receptor [7],> 30 µM
O=C(O)CCNC(=O)c1ccccc1 [BETAMIPRON],AC50,[5],> 30 µM
Oc1ccc2c(c1)[C@@]13CCCC[C@@]1(O)[C@@H](C2)N(CC1CCC1)CC3 [BUTORPHANOL],AC50,[4],> 30 µM
same,AC50,Androgen receptor [6],> 30 µM
same,AC50,Androgen receptor [7],> 30 µM
C#CCOc1ccc(N)cc1C(=O)NCCCC [PARSALMIDE],AC50,Androgen receptor [6],> 30 µM
same,AC50,Androgen receptor [7],> 30 µM
CCN(CC)C(=O)Nc1ccc(OCC(O)CNC(C)(C)C)c(C(C)=O)c1 (stereo unspecified) [CELIPROLOL],AC50,Androgen receptor [6],> 30 µM
same,AC50,[5],> 30 µM
same,AC50,Androgen receptor [7],> 30 µM
COc1ccc2nc3cc(Cl)ccc3c(Nc3cc(CN4CCCC4)c(O)c(CN4CCCC4)c3)c2n1 [PYRONARIDINE],AC50,Androgen receptor [6],> 30 µM
same,AC50,Androgen receptor [7],> 10 µM
CCCCCCCCCCCCCCCCCCCCCC(=O)Nc1ccn([C@@H]2O[C@H](CO)[C@@H](O)[C@@H]2O)c(=O)n1 [ENOCITABINE],AC50,Androgen receptor [6],> 30 µM
same,AC50,Androgen receptor [7],> 30 µM
C=C1/C(=C\C=C2/CCC[C@]3(C)[C@@H]([C@H](C)/C=C/[C@@H](O)C4CC4)CC[C@@H]23)C[C@@H](O)C[C@@H]1O [CALCIPOTRIENE],AC50,Androgen receptor [6],> 30 µM
same,AC50,Androgen receptor [7],28 µM
Cc1ncc2n1-c1ccc(Cl)cc1C(c1ccccc1F)=NC2 [MIDAZOLAM],AC50,Progesterone receptor,> 30 µM
CCN1CCCC1CNC(=O)c1cc(S(=O)(=O)CC)c(N)cc1OC (stereo unspecified) [AMISULPRIDE],AC50,[4],> 30 µM
COc1cc2c(cc1OC)C(CCc1ccc(Cl)cc1)N(C)CC2 (stereo unspecified) [METHOPHOLINE],AC50,Androgen receptor [3],> 30 µM
COc1ccc(-c2noc(CC(=O)O)c2-c2ccc(OC)cc2)cc1 [MOFEZOLAC],AC50,Androgen receptor [6],> 30 µM
same,AC50,[5],> 30 µM
same,AC50,Androgen receptor [7],> 30 µM
Nc1cc(-c2ccncc2)c[nH]c1=O [INAMRINONE],AC50,Androgen receptor [3],> 30 µM
same,AC50,Progesterone receptor,> 20 µM
CC(=O)[C@@]1(O)CC[C@H]2[C@@H]3C=C(Cl)C4=CC(=O)[C@@H]5C[C@@H]5[C@]4(C)[C@H]3CC[C@@]21C [CYPROTERONE],AC50,D(1A) dopamine receptor,> 10 µM
CC(=O)O[C@H](CC(=O)[O-])C[N+](C)(C)C [ACETYLCARNITINE],AC50,[5],> 30 µM
